Test results published in PubChem BioAssay AID248 (DTP/NCI, 2004).
Values joined by “and” are separate entries in the source; they are usually repeats but may differ in a detail not shown here. Equal entries are not always repeated. Inconclusive results and toxic doses are left out.

Test system: L1210 leukemia ip in BDF1 mice, survival T/C
Assay: NCI In Vivo Anticancer Drug Screen. Data for tumor model L1210 Leukemia (intraperitoneal) in B6D2F1 (BDF1) mice
Conditions: endpoint: mean survival time, higher = longer survival
How it was run: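 Each compound was tested against a transplantable tumor grown in mice. The endpoint was survival, with treated animals benchmarked against vehicle controls as a simple ratio.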

SMILES: O=C(O)c1cccc(NC(C(=O)c2ccccc2)c2ccccc2)c1 (stereo unspecified)
- T/C (dose: 50.0 mg/kg/injection, schedule: Q01DX001 (ip), vehicle: Klucel (hydroxypropylcellulose) (HPC)): 102 % of control
- T/C (dose: 100.0 mg/kg/injection, schedule: Q01DX001 (ip), vehicle: Klucel (hydroxypropylcellulose) (HPC)): 102 % of control
- T/C (dose: 200.0 mg/kg/injection, schedule: Q01DX001 (ip), vehicle: Klucel (hydroxypropylcellulose) (HPC)): 102 % of control

SMILES: CC(=O)OCC1OC(n2cc(C(F)(F)F)c(=O)[nH]c2=O)CC1OC(C)=O (stereo unspecified)
- T/C (dose: 20.0 mg/kg/injection, schedule: Q01DX009 (oral), vehicle: saline): 116 % of control
- T/C (dose: 20.0 mg/kg/injection, schedule: Q01DX011 (ip), vehicle: saline): 116 % of control
- T/C (dose: 40.0 mg/kg/injection, schedule: Q01DX009 (oral), vehicle: saline): 116 % of control
- T/C (dose: 40.0 mg/kg/injection, schedule: Q01DX011 (ip), vehicle: saline): 118 % of control
- T/C (dose: 45.0 mg/kg/injection, schedule: Q01DX Z (oral), vehicle: saline): 105 % of control
- T/C (dose: 65.0 mg/kg/injection, schedule: Q01DX Z (oral), vehicle: saline): 87 % of control
- T/C (dose: 80.0 mg/kg/injection, schedule: Q01DX009 (oral), vehicle: saline): 118 % of control
- T/C (dose: 80.0 mg/kg/injection, schedule: Q01DX011 (ip), vehicle: saline): 122 % of control
- T/C (dose: 100.0 mg/kg/injection, schedule: Q01DX Z (oral), vehicle: saline): 109 % of control
- T/C (dose: 150.0 mg/kg/injection, schedule: Q01DX011 (oral), vehicle: saline): 168 % of control
- T/C (dose: 160.0 mg/kg/injection, schedule: Q01DX009 (oral), vehicle: saline): 155 % of control
- T/C (dose: 160.0 mg/kg/injection, schedule: Q01DX011 (ip), vehicle: saline): 159 % of control
- T/C (dose: 300.0 mg/kg/injection, schedule: Q01DX011 (oral), vehicle: saline): 153 % of control
- T/C (dose: 480.0 mg/kg/injection, schedule: Q01DX Z (ip), vehicle: saline): 115 % of control

SMILES: CCc1ccc(N=C/C=C/c2ccccc2)cc1
- T/C (dose: 25.0 mg/kg/injection, schedule: Q01DX009 (ip), vehicle: other): 98 % of control
- T/C (dose: 50.0 mg/kg/injection, schedule: Q01DX009 (ip), vehicle: other): 98 % of control
- T/C (dose: 100.0 mg/kg/injection, schedule: Q01DX009 (ip), vehicle: other): 98 % of control and 110 % of control

SMILES: C=CCCC[P+](c1ccccc1)(c1ccccc1)c1ccccc1
- T/C (dose: 3.13 mg/kg/injection, schedule: Q01DX009 (ip), vehicle: saline): 95 % of control
- T/C (dose: 6.25 mg/kg/injection, schedule: Q01DX009 (ip), vehicle: saline): 103 % of control
- T/C (dose: 12.5 mg/kg/injection, schedule: Q01DX009 (ip), vehicle: saline with Tween-80): 108 % of control
- T/C (dose: 12.5 mg/kg/injection, schedule: Q01DX009 (ip), vehicle: saline): 100 % of control
- T/C (dose: 25.0 mg/kg/injection, schedule: Q01DX009 (ip), vehicle: saline with Tween-80): 108 % of control
- T/C (dose: 50.0 mg/kg/injection, schedule: Q01DX009 (ip), vehicle: saline): 101 % of control

SMILES: CN=NC(C)(c1ccc(Cl)cc1)C(C)(N=NC)c1ccc(Cl)cc1 (stereo unspecified)
- T/C (dose: 17.5 mg/kg/injection, schedule: Q01DX009 (ip), vehicle: Klucel (hydroxypropylcellulose) (HPC)): 92 % of control
- T/C (dose: 35.0 mg/kg/injection, schedule: Q01DX009 (ip), vehicle: Klucel (hydroxypropylcellulose) (HPC)): 103 % of control
- T/C (dose: 70.0 mg/kg/injection, schedule: Q01DX009 (ip), vehicle: Klucel (hydroxypropylcellulose) (HPC)): 100 % of control

SMILES: CC(=O)N1N=C(c2ccccc2)CC1C1CC(c2ccccc2)=NN1C(C)=O (stereo unspecified)
- T/C (dose: 100.0 mg/kg/injection, schedule: Q01DX001 (ip), vehicle: saline): 102 % of control
- T/C (dose: 200.0 mg/kg/injection, schedule: Q01DX001 (ip), vehicle: saline): 100 % of control
- T/C (dose: 400.0 mg/kg/injection, schedule: Q01DX001 (ip), vehicle: saline): 102 % of control

SMILES: COc1ccc(Cl)cc1NC(=O)Nc1cc(C)ccc1N=Nc1ccc(C)cc1
- T/C (dose: 100.0 mg/kg/injection, schedule: Q01DX001 (ip), vehicle: saline with Tween-80): 96 % of control and 91 % of control
- T/C (dose: 100.0 mg/kg/injection, schedule: Q01DX009 (ip), vehicle: saline with Tween-80): 88 % of control
- T/C (dose: 100.0 mg/kg/injection, schedule: Q04DX002 (ip), vehicle: saline with Tween-80): 87 % of control
- T/C (dose: 200.0 mg/kg/injection, schedule: Q01DX001 (ip), vehicle: saline with Tween-80): 96 % of control
- T/C (dose: 200.0 mg/kg/injection, schedule: Q01DX009 (ip), vehicle: saline with Tween-80): 94 % of control and 91 % of control
- T/C (dose: 200.0 mg/kg/injection, schedule: Q04DX002 (ip), vehicle: saline with Tween-80): 92 % of control
- T/C (dose: 400.0 mg/kg/injection, schedule: Q01DX001 (ip), vehicle: saline with Tween-80): 96 % of control and 88 % of control
- T/C (dose: 400.0 mg/kg/injection, schedule: Q01DX009 (ip), vehicle: saline with Tween-80): 94 % of control
- T/C (dose: 400.0 mg/kg/injection, schedule: Q04DX002 (ip), vehicle: saline with Tween-80): 92 % of control
